In patent publication US20240368150A1 (Hoffmann-La Roche Inc., priority 2021, published 2024):
pEC50: −log10 of the molar value. Read-outs that look alike come from different tables or passages of the source.

Tests used:
primary human T-cells [1] = assay: Proliferation assay after 5 days (CellTiter-Glo, CD3 stimulation; PBS counter screen); format: cell-based; details: Homo sapiens, T-cell, 120 h; for Emax: read-out: Emax proliferation (% activation); for pEC50: read-out: Tcell Proliferation CD3 EC50
Method in brief: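 After compound addition to medium-only plates, cells are cultured 5 days, equilibrated to room temperature, mixed with an equal volume of CellTiter-Glo 2.0 and rocked 15 min before luminescence is read. Signal reflects ATP content, taken as proportional to cell number.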

primary human T-cells [2] = tested on: primary human T-cells
[3] = CD3 stimulation, 5 days, normalized to reference compound A1 as stimulator control = 100%, DMSO neutral control
[4] = primary human T-cells, CD3 stimulation, CellTiter-Glo after 5 days, EC50 of fitted sigmoidal curve

pEC50 (primary human T-cells [2]) | Compound | Emax (primary human T-cells [1]) [%] | pEC50 (primary human T-cells [1]) | Emax (primary human T-cells [1]; [3]) [%] | pEC50 (primary human T-cells [1]; [4])
6.05 | CN1CC(c2nnc(-c3ccc4c(c3)N(Cc3ccc(Cl)cc3)C(=O)[C@@H](N)CS4(=O)=O)o2)CC(F)(F)C1 (stereo partly drawn) [Example 385, (3R)-3-amino-5-[(4-chlorophenyl)methyl]-7-[5-(5,5-difluoro-1-methyl-3-piperidyl)-1,3,4-oxadiazol-2-yl]-1,1-dioxo-2,3-dihydro-1λ^6,5-benzothiazepin-4-one] |  |  | 106 | 5.83
5.64 | N[C@H]1CS(=O)(=O)c2ccc(-c3nnc(C4CC5(CC(O)C5)C4)o3)cc2N(Cc2ccc(Cl)cc2)C1=O (stereo partly drawn) [Example 387, (3R)-3-amino-5-[(4-chlorophenyl)methyl]-7-[5-(2-hydroxyspiro[3.3]heptan-6-yl)-1,3,4-oxadiazol-2-yl]-1,1-dioxo-2,3-dihydro-1λ^6,5-benzothiazepin-4-one] |  |  | 157 | 5.95
6.48 | COC(F)(c1nnc(-c2ccc3c(c2)N(Cc2ccc(Cl)cc2)C(=O)[C@@H](N)CS3(=O)=O)o1)C(F)(F)F (stereo partly drawn) [Example 388, (3R)-3-amino-5-[(4-chlorophenyl)methyl]-1,1-dioxo-7-[5-(1,2,2,2-tetrafluoro-1-methoxy-ethyl)-1,3,4-oxadiazol-2-yl]-2,3-dihydro-1λ^6,5-benzothiazepin-4-one] |  |  | 129 | 6.78
< 5.56 | COC(=O)N1CCC(C#N)(c2nnc(-c3ccc4c(c3)N(Cc3ccc(Cl)cc3)C(=O)[C@@H](N)CS4(=O)=O)o2)CC1 [Example 389, methyl 4-[5-[(3R)-3-amino-5-[(4-chlorophenyl)methyl]-1,1,4-trioxo-2,3-dihydro-1λ^6,5-benzothiazepin-7-yl]-1,3,4-oxadiazol-2-yl]-4-cyano-piperidine-1-carboxylate] |  |  | 80 | 5.70
5.40 | CC(F)(F)CNc1nnc(-c2ccc3c(c2)N(Cc2ccc(Cl)cc2)C(=O)[C@@H](N)CS3(=O)=O)o1 [Example 393, (3R)-3-amino-5-[(4-chlorophenyl)methyl]-7-[5-(2,2-difluoropropylamino)-1,3,4-oxadiazol-2-yl]-1,1-dioxo-2,3-dihydro-1λ^6,5-benzothiazepin-4-one] |  |  | 51 | 5.55
5.51 | CN(c1nnc(-c2ccc3c(c2)N(Cc2ccc(Cl)cc2)C(=O)[C@@H](N)CS3(=O)=O)o1)C1CC1 [Example 394, (3R)-3-amino-5-[(4-chlorophenyl)methyl]-7-[5-[cyclopropyl(methyl)amino]-1,3,4-oxadiazol-2-yl]-1,1-dioxo-2,3-dihydro-1λ^6,5-benzothiazepin-4-one] |  |  | 98 | 5.75
5.95 | CC1(C)CN(c2nnc(-c3ccc4c(c3)N(Cc3ccc(Cl)cc3)C(=O)[C@@H](N)CS4(=O)=O)o2)CCO1 [Example 395, (3R)-3-amino-5-[(4-chlorophenyl)methyl]-7-[5-(2,2-dimethylmorpholin-4-yl)-1,3,4-oxadiazol-2-yl]-1,1-dioxo-2,3-dihydro-1λ^6,5-benzothiazepin-4-one] |  |  | 88 | 6.29
6.03 | N[C@H]1CS(=O)(=O)c2ccc(-c3nnc(N4CCC(F)(F)CC4)o3)cc2N(Cc2ccc(Cl)cc2)C1=O [Example 396, (3R)-3-amino-5-[(4-chlorophenyl)methyl]-7-[5-(4,4-difluoro-1-piperidyl)-1,3,4-oxadiazol-2-yl]-1,1-dioxo-2,3-dihydro-1λ^6,5-benzothiazepin-4-one] |  |  | 87 | 6.28

Compound | pEC50 (primary human T-cells [2]) | Emax (primary human T-cells [1]) [%] | pEC50 (primary human T-cells [1]) | Emax (primary human T-cells [1]; [3]) [%] | pEC50 (primary human T-cells [1]; [4])
Cc1ccc(OC(=O)N2CCC(C)(c3nnc(-c4ccc5c(c4)N(Cc4ccc(Cl)cc4)C(=O)[C@@H](N)CS5(=O)=O)o3)CC2)cn1 [Example 383, (6-methyl-3-pyridyl) 4-[5-[(3R)-3-amino-5-[(4-chlorophenyl)methyl]-1,1,4-trioxo-2,3-dihydro-1λ^6,5-benzothiazepin-7-yl]-1,3,4-oxadiazol-2-yl]-4-methyl-piperidine-1-carboxylate] | 6.07 | 94 | 5.88 |  | 
